Measurements reported in US8197819B2, “Env polypeptide complexes and methods of use” (priority 2004, dated 2012).
“Also recorded” adds a separate entry of the source.

Columns and labels:
Set-up in all cases: species or system HIV
gp120 (48D epitope) = target: T1, gp120 (48D epitope) (Human immunodeficiency virus type 1 group M subtype B, UniProt P19550); assay: SPR (Biacore) upregulation of monoclonal antibody 48D binding to Env/compound complex; settings: Example 6 screening; FIG. 6C
T1 construct: The concentration of gp120SMF162 used was 1 uM for all samples
Description: (§1) Surface plasmon resonance assays were performed using a BIACORE 3000 optical biosensor system (Biacore AB, Uppsala, Sweden) with simultaneous monitoring of relevant flow cells. To perform the kinetic study of the binding of HIV env to sCD4, sCD4 was immobilized using amine coupling onto CM5 sensor chip to attain 4000 response units. To perform the kinetic study of the binding of HIV env to the monoclonal antibody 17b, antibodies were immobilized using amine coupling onto a CM5 sensor chip to attain 2000 response units. Using PBS buffer (pH 7.4) with 0.05% Tween 20 and 3% DMSO, association was assessed by passing gp120SF162 (GenBank P03378; Sanchez-Pescador et al. (1985) Science, 227(4686): 484-492), with and without various controls or small molecules, over the chip surface at a flow rate of 25 μl/min. The concentration of gp120SMF162 used was 1 uM for all samples. As a negative control, a control surface coupled to 2000 response units of BSA (Pierce) was used. A buffer only control was subtracted from all sensograms. Responses were measured by assessing the maximum RUs (response units) obtained at the peak of the binding curve.
Additional candidate small molecules were screened for CD4 binding inhibition and upregulation of CD4 inducible epitopes, e.g., mABs 17b and 48D, by HPLC and BlAcore methods as described in Examples 1 and 4 above. […]

gp120SF162 [1] = target: T2, gp120SF162 (Human immunodeficiency virus type 1 group M subtype B, UniProt P19550); assay: Example 6 screening for CD4 binding inhibition (SEC-HPLC with fluorescently-labelled CD4, and Biacore); settings: three rounds
Excerpt: (§2) Additional candidate small molecules were screened for CD4 binding inhibition and upregulation of CD4 inducible epitopes, e.g., mABs 17b and 48D, by HPLC and BlAcore methods as described in Examples 1 and 4 above. Each of the compounds in Table 5 below was screened three times by both methods using different lots of both gp120 and antibodies. The rounds of screening tests were additionally carried out on different dates.
CD4 binding competition was examined in the free solution state by HPLC. Various candidate small molecules were each mixed with gp120SF162 and the resulting solution was incubated for 1 hour at 37° C. Fluorescently-labelled CD4, CD4 488, was then added to each incubated solution, and the resulting mixture was analyzed by size exclusion HPLC (SEC-HPLC), using fluorescent signal detection. The extent of competition with CD4 was determined as follows.

gp120SF162 (17b epitope) = gp120SF162 (17b epitope) (Human immunodeficiency virus type 1 group M subtype B, UniProt P19550); assay: SPR (Biacore) upregulation of monoclonal antibody 17b binding to Env/compound complex; settings: for upregulation of CD4 inducible epitopes on gp120: FIGS. 4B, 5B, antibody not stated in the legend
Description: (§3) In a second step, each of the 100 structurally identified compounds was screened for its ability to compete with CD4 binding to Env (gp120) as well as its ability to induce the desired conformational change in the HIV Env protein to expose inducible epitopes. Both binding competition and exposure of cryptic epitopes were analyzed using Biacore's SRP systems. (Biacore Inc., Piscataway, N.J.), following the manufacturer's instructions.
as §1
The percentage upregulation of 17b was determined by dividing the peak RU observed for the Env polypeptide/compound complex divided by the peak RU for the Env polypeptide alone.
as §2

gp120SF162 [2] = target: T2, gp120SF162; assay: SPR (Biacore) competition: gp120 binding to immobilized sCD4 with and without small molecule; settings: FIG. 1, compared to when the small molecule was not present
Description: as §3
as §1, with “The concentration of gp120SMF162 used was 1 uM for all samples. As a negative control, a control surface coupled to 2000 response units of BSA (Pierce) was used. A buffer only control was subtracted from all sensograms.” left out

| SMILES | upregulation of CD4 inducible epitopes on gp120, binding to monoclonal antibody 48D (gp120 (48D epitope)) | inhibition of (competition with) CD4 binding to gp120 (gp120SF162 [1]) | upregulation of 17b (CD4 inducible epitope on gp120) (gp120SF162 (17b epitope); Example 6 screening, binding to monoclonal antibody 17b) | binding of Env/small molecule complex to monoclonal antibody 17b (gp120SF162 (17b epitope); SPR, FIG. 2, in comparison to Env-sCD4 complexes) | inhibition of CD4 binding to Env (Env binding to the CD4 chip) (gp120SF162 [2]) | upregulation of CD4 inducible epitopes on gp120 (gp120SF162 (17b epitope); Example 6 screening) |
| --- | --- | --- | --- | --- | --- | --- |
| COc1ccc2[nH]cc(C(=O)CN3CCN(Cc4ccccc4)CC3)c2c1 [Compound 2, 2-(4-benzylpiperazin-1-yl)-1-(5-methoxy-1H-indol-3-yl)ethanone] | upregulation of CD4 inducible epitopes on gp120 | non-inhibition of CD4 binding to gp120 | upregulation of CD4 inducible epitopes on gp120 | – | – | – |
| CCOC(=O)C1CCN(C(=O)c2cc3c(C)cc(C)cc3[nH]2)CC1 [Compound 5, ethyl 1-[(4,6-dimethyl-1H-indol-2-yl)carbonyl]piperidine-4-carboxylate] | – | – | – | exhibited enhanced binding to monoclonal antibody 17b | inhibition of CD4 binding to Env; also recorded: inhibited binding of Env to the CD4 chip | – |
| COc1cc(C(=O)N2CCC(c3c[nH]c4ccccc34)CC2)cc(OC)c1OC [Compound 12, [4-(1H-indol-3-yl)-piperidin-1-yl]-(3,4,5-trimethoxy-phenyl)-methanone] | – | inhibition of CD4 binding to gp120 | – | – | – | absence of upregulation of CD4 inducible epititopes on gp120 |
| COc1ccccc1N1CCN(CC(=O)c2c(C)[nH]c3ccccc23)CC1 [Compound 26, 2-[4-(2-Methoxy-phenyl)-piperazin-1-yl]-1-(2-methyl-1H-indol-3-yl)-ethanone] | – | inhibition of CD4 binding to gp120 | – | – | – | upregulation of CD4 inducible epititopes on gp120 |
